We go through 27 compounds from publication PMC7503225, “Repositioning Dequalinium as Potent Muscarinic Allosteric Ligand by Combining Virtual Screening Campaigns and Experimental Binding Assays” (International Journal of Molecular Sciences, 2020).

The conditions of series [1]: ref DrugBank [16]; cited from earlier work.
In a further series the target is T1, hM5 muscarinic receptor (Homo sapiens, UniProt P08912).
T1 construct: expressed in transfected cells; host or cells: CHO cells, stably transfected; membrane fractions
T1 sequence (P08912 1-532): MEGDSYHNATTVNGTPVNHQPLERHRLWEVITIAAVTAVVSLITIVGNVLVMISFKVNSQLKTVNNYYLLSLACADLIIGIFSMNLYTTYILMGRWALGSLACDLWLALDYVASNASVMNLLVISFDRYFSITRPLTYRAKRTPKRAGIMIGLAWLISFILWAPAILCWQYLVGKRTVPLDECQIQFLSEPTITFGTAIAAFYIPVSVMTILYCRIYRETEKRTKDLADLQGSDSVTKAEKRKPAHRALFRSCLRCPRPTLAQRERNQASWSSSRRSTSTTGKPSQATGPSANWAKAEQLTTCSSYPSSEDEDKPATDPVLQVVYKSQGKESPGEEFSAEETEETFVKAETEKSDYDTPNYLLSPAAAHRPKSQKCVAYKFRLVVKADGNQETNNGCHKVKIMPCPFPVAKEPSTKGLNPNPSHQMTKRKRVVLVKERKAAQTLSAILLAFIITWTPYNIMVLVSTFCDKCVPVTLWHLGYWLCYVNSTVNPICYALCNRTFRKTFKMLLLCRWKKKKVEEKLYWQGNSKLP
Put plainly: Equilibrium inhibition binding with [3H]-NMS, CHO cell membranes. On the procedure:
(§1) All tested compounds were purchased from Merck KGaA (Darmstadt, Germany). The radioligand binding experiments were performed with membranes from Chinese Hamster Ovary (CHO) cells stably transfected with the five cloned human muscarinic receptor subtypes (hM1-5). Membrane fractions were prepared according to the protocol, which have been previously described; membranes were stored at −80 °C until use. Nonspecific binding was defined by the radioactivity bound in the presence of 10 µM atropine.
(§2) Aliquots of membranes (25–70 µg/mL) were added and incubated for 2 h at room temperature, filtered through UniFilter GF/B plates (PerkinElmer Life and Analytical Science, Monza, Italy) using a FilterMate cell harvester (PerkinElmer Life and Analytical Science, Monza, Italy). The filters were washed several times with ice-cold MilliQ water. Then, the plates were counted in a β-counter (TopCount NXT microplate scintillation counter, PerkinElmer Life and Analytical Science, Monza, Italy).
(§3) Data points from radioligand inhibition binding curve were fitted to models using nonlinear regression equation to determine inhibitor potency (IC50) estimates, which were then converted to Ki values as appropriate.
(§4) All the results are expressed as means ± SEM obtained from 3-4 independent experiments each one performed in duplicate.

Another series deals with T2, hM4 muscarinic receptor (Homo sapiens, UniProt P08173).
T2 construct: expressed in transfected cells; host or cells: CHO cells, stably transfected; membrane fractions
T2 sequence (P08173 1-479): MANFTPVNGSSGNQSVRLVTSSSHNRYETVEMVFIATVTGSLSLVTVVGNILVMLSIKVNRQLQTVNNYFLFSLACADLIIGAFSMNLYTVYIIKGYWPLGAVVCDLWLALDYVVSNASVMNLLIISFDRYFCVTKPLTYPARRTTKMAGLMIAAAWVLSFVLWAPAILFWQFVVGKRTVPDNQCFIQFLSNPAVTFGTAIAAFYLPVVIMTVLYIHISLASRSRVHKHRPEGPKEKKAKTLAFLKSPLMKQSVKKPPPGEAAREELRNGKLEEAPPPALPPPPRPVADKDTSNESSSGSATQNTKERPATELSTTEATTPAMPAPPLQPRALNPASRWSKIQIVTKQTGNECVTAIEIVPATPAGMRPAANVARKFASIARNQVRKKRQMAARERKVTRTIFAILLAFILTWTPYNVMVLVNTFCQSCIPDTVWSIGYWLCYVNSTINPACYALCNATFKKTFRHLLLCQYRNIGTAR
Described as above. On the procedure: as §1, §2, §3, §4

In another series the target is T3, hM1 muscarinic receptor (Homo sapiens, UniProt P11229).
T3 construct: expressed in transfected cells; host or cells: CHO cells, stably transfected; membrane fractions
T3 sequence (P11229 1-460): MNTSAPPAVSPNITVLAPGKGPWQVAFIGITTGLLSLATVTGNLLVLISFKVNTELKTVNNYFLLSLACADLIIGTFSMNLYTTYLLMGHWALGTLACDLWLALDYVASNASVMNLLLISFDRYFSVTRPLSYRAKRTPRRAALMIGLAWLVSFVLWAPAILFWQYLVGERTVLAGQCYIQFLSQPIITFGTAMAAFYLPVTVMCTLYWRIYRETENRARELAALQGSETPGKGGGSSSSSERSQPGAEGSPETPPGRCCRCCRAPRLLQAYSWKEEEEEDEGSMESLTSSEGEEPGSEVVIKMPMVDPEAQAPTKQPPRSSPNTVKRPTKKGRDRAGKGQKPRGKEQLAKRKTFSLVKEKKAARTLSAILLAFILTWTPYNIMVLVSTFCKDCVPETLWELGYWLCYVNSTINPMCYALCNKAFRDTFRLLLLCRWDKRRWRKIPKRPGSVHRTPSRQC
The description is as above. The conditions noted are these: [3H]-NMS 0.2 nM, mean ± SEM of 3-4 experiments, read-out: pKi hM1 (converted). As to the method:
as §1, §2, §3, §4

A further series concerns the target T4, hM2 muscarinic receptor (Homo sapiens, UniProt P08172).
T4 construct: expressed in transfected cells; host or cells: CHO cells, stably transfected; membrane fractions
T4 sequence (P08172 1-466): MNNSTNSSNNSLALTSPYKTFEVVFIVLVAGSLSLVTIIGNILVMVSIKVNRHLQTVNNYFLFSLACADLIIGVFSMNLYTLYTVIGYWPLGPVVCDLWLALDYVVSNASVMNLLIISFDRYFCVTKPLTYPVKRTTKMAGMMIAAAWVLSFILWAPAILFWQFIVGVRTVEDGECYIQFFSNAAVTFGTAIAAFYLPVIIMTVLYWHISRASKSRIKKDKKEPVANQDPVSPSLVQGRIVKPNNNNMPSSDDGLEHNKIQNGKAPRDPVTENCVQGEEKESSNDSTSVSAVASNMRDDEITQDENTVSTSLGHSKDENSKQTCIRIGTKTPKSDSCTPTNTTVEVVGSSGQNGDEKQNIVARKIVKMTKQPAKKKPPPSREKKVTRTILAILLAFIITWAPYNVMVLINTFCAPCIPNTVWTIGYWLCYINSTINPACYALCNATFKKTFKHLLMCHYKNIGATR
The series is described as above. The conditions noted are these: [3H]-NMS 0.2 nM, mean ± SEM of 3-4 experiments, read-out: pKi hM2 (converted). As to the method: as §1, §2, §3, §4

A further series has as its target T5, hM3 muscarinic receptor (Homo sapiens, UniProt P20309).
T5 construct: expressed in transfected cells; host or cells: CHO cells, stably transfected; membrane fractions
The description is as above. Conditions: [3H]-NMS 0.2 nM, mean ± SEM of 3-4 experiments, read-out: pKi hM3 (converted). On the procedure: as §1, §2, §3, §4

Series [2] has as its target T6, [3H]-NMS-occupied muscarinic hM2 subtype (Homo sapiens, UniProt P08172).
T6 construct: expressed in transfected cells; host or cells: CHO cells, stably transfected; membrane fractions
T6 sequence (P08172 1-466): T4 sequence (P08172 1-466)
As to the kind of experiment: One point kinetic (off-rate) assay of [3H]-NMS dissociation. It counts as binding. On the procedure: as §1
Off-rate assays were performed as described elsewhere to estimate the affinity of the ligands for the [^3H]-NMS-occupied receptor (log Kocc). Briefly, a high concentration of membranes (about 0.1 mg/mL) was incubated with a high concentration of [^3H]-NMS (2 nM) for 60 min at room temperature (mix membrane). Next, 100 µL aliquots were distributed into polypropylene tubes that were empty or in a final volume of 1 mL binding buffer with 1 µM atropine alone and in the presence of a range of concentrations of tested compound (1 nM–0.1 mM).
The effect on the radioligand dissociation of each tested ligand was determined at 0 min and at one time point, which was chosen to be ca 2.5 dissociation half-lives of [^3H]-NMS alone from each subtype receptors. Later (80 min for hM1, 20 min for hM2 and 70 min for hM5), the samples were filtered and counted as previously reported. Non specific binding was measured as previously reported.
as §4

The mark [3] stands for this setting: [3H]-NMS 0.2 nM, CHO membranes, mean ± SEM of 3-4 experiments, read-out: pKi hM5 (converted).
Where [4] appears, read: [3H]-NMS 0.2 nM, CHO membranes, mean ± SEM of 3-4 experiments, read-out: pKi hM4 (converted).

The structures appear in SMILES notation. Where two headings read alike, the source gives them in different places.

T5 sequence (P20309 whole entry): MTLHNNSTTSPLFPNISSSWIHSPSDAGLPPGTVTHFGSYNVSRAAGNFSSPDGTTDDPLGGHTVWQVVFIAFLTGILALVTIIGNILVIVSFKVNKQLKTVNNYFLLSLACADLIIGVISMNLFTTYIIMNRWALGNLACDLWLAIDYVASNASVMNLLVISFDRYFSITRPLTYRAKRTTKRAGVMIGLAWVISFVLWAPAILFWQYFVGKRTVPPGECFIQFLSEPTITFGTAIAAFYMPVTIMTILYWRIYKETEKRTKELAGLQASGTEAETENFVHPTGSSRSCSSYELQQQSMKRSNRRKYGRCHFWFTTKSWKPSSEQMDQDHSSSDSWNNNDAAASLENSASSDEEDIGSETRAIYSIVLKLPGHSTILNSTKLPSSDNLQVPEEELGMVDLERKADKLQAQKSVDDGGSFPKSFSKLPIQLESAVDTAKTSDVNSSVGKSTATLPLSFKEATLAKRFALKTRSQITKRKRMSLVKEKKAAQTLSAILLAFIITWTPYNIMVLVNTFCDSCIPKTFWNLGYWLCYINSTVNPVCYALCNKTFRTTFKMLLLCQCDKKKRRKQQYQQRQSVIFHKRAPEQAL

The term logP denotes the decadic logarithm of the partition coefficient of the neutral form, usually between octanol and water. For `CC(C)(C)C(=O)OCOP(=O)(COCCn1cnc2c(N)ncnc21)OCOC(=O)C(C)(C)C` [adefovir dipivoxil], the lipophilicity (logP) in series [1] is 1.5.
With `C=CCNc1nc(NCC=C)nc(N2CCN(C(c3ccc(F)cc3)c3ccc(F)cc3)CC2)n1` [almitrine], the logP in series [1] was 4.1.
Take `CC[N+](CC)(CCNC(=O)C(=O)NCC[N+](CC)(CC)Cc1ccccc1Cl)Cc1ccccc1Cl` [ambenonium]: the lipophilicity (logP) in series [1] was 2.3.
Consider `CC(C)COCC(CN(Cc1ccccc1)c1ccccc1)N1CCCC1` (stereo not shown) [bepridil], for which, in series [1], the lipophilicity (logP) is on record as 5.2.
`CCNC(=O)CCC/C=C\C[C@@H]1[C@@H](/C=C/[C@@H](O)CCc2ccccc2)[C@H](O)C[C@@H]1O` [bimatoprost]: in series [1], the logP is 3.4.
For `COc1ccccc1OCCNCC(O)COc1cccc2[nH]c3ccccc3c12` (stereo not shown) [carvedilol], the logP in series [1] is 3.1.
For the compound `CC(=O)N(O)CCCCCNC(=O)CCC(=O)N(O)CCCCCNC(=O)CCC(=O)N(O)CCCCCN` [deferoxamine], in series [1], the lipophilicity (logP) is recorded as 0.9.
In the case of `CN(CCCCCCCCCCN(C)C(=O)Oc1cccc([N+](C)(C)C)c1)C(=O)Oc1cccc([N+](C)(C)C)c1` [demecarium], the logP in series [1] is 0.6.
Regarding `CCCCC[C@H](O)/C=C/[C@H]1[C@H](O)CC(=O)[C@@H]1C/C=C\CCCC(=O)O` [dinoprostone], the logP in series [1] was 2.8.
Take `CC[N+](CC)(CC)CCOc1cccc(OCC[N+](CC)(CC)CC)c1OCC[N+](CC)(CC)CC` [gallamine]: the Ki at hM5 muscarinic receptor (setting [3]) was 2.19 µM; at hM4 muscarinic receptor (setting [4]), 0.794 µM.
With `C[N+](C)(CCCCCC[N+](C)(C)C1c2ccccc2-c2ccccc21)C1c2ccccc2-c2ccccc21` [hexafluronium], the logP in series [1] is recorded as 1.8.
With `CC#CCC(C)[C@H](O)/C=C/[C@@H]1[C@H]2C/C(=C/CCCC(=O)O)C[C@H]2C[C@H]1O` (stereo partly shown) [iloprost], the logP in series [1] was 4.2.
Take `CC(=O)N1CCN(c2ccc(OCC3COC(Cn4ccnc4)(c4ccc(Cl)cc4Cl)O3)cc2)CC1` (stereo not shown) [ketoconazole]: the Ki at hM5 muscarinic receptor (setting [3]) was 7.94 µM; on hM4 muscarinic receptor (setting [4]), 4.57 µM.
For the compound `CS(=O)(=O)CCNCc1ccc(-c2ccc3ncnc(Nc4ccc(OCc5cccc(F)c5)c(Cl)c4)c3c2)o1` [lapatinib], the lipophilicity (logP) in series [1] is given as 5.2.
Regarding `CC(C)OC(=O)CCC/C=C\C[C@@H]1[C@@H](CC[C@@H](O)CCc2ccccc2)[C@H](O)C[C@@H]1O` [latanoprost], in series [1], the lipophilicity (logP) is 4.2.
With `C/C(=C\C(=O)OCCCCCCCCC(=O)O)C[C@@H]1OC[C@H](C[C@@H]2O[C@H]2[C@@H](C)[C@H](C)O)[C@@H](O)[C@H]1O` [mupirocin], the logP in series [1] is reported as 2.2.
For the compound `CCCCCCCCCCC[C@@H](C[C@@H]1OC(=O)[C@H]1CCCCCC)OC(=O)[C@H](CC(C)C)NC=O` [orlistat], the Ki on hM5 muscarinic receptor (setting [3]), on hM1 muscarinic receptor, at hM2 muscarinic receptor, at hM4 muscarinic receptor (setting [4]) and at hM3 muscarinic receptor was greater than 100 µM in each case. Besides, in series [1], the logP is 7.5. Moreover, the “Log Kocc hM2” value in series [2] (Table 4, affinity estimate at [3H]-NMS-occupied receptor, one time point 20 min, mean ± SEM) is “completely inactive”. The Kd in series [2] (read-out: Log Kocc hM2 (converted)) is greater than 1000 µM.
Turning to `C[n+]1ccc(-c2cc[n+](C)cc2)cc1` [paraquat], the results for the Ki on hM5 muscarinic receptor, at hM2 muscarinic receptor and at hM4 muscarinic receptor were 14.8 µM, 23.4 µM and greater than 100 µM, respectively.
In the case of `CC1=C(C/C=C(\C)CCC[C@H](C)CCC[C@H](C)CCCC(C)C)C(=O)c2ccccc2C1=O` [phytonadione], the logP in series [1] was 9.3.
As for `O=c1[nH]c2ccccc2n1C1CCN(CCCC(c2ccc(F)cc2)c2ccc(F)cc2)CC1` [pimozide], the logP in series [1] is 6.3.
For the compound `OCc1cc(C(O)CNCCCCCCOCCCCc2ccccc2)ccc1O` (stereo not shown) [salmeterol], the Ki on hM5 muscarinic receptor (setting [3]) is 12.6 µM; on hM1 muscarinic receptor it was 3.24 µM; at hM4 muscarinic receptor (setting [4]) it was 9.77 µM; at hM3 muscarinic receptor, 12 µM. Further, the logP in series [1] is on record as 3.8.
For `C[C@H](Cc1cc2c(c(C(N)=O)c1)N(CCCO)CC2)NCCOc1ccccc1OCC(F)(F)F` [silodosin], the lipophilicity (logP) in series [1] is 3.0.
As to `CC(C)N1CCN(c2ccc(OCC3COC(Cn4cncn4)(c4ccc(Cl)cc4Cl)O3)cc2)CC1` (stereo not shown) [terconazole], the lipophilicity (logP) in series [1] is listed as 4.5.
Regarding `CC(C)(C)c1ccc(C(O)CCCN2CCC(C(O)(c3ccccc3)c3ccccc3)CC2)cc1` (stereo not shown) [terfenadine], the Ki on hM4 muscarinic receptor (setting [4]) was 11 µM. Besides, the logP in series [1] is 5.9.
Turning to `CC(C)OC(=O)CCC/C=C\C[C@@H]1[C@@H](/C=C/[C@@H](O)COc2cccc(C(F)(F)F)c2)[C@H](O)C[C@@H]1O` [travoprost], in series [1], the logP is listed as 4.6.
With `N#Cc1ccc2[nH]cc(CCCCN3CCN(c4ccc5oc(C(N)=O)cc5c4)CC3)c2c1` [vilazodone], in series [1], the logP is 4.2.
Take `CCOC(=O)CN[C@@H](C(=O)N1CC[C@H]1C(=O)NCc1ccc(/C(N)=N\O)cc1)C1CCCCC1` [ximelagatran]: in series [1], the lipophilicity (logP) is listed as 1.4.
